This is an account of results in PubChem BioAssay (NCI).

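48-hour exposure; five concentrations; linearly interpolated endpoints. The concentration for full growth arrest is given as TGI.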

Some test systems named below: T-47D breast; MCF7 breast; RPMI-8226 leukemia; BT-549 breast; M14 melanoma; UACC-257 melanoma; MALME-3M melanoma; LOX IMVI melanoma; SF-539 CNS; A498 renal; OVCAR-8 ovarian; NCI/ADR-RES ovarian; EKVX NSCLC; ACHN renal.
What all share (experiment): inhibition of tumour cell growth, NCI panel, 48 h

As for `Clc1ccccc1-c1nn2c(CCCCCCCCc3nnc4sc(-c5ccccc5Cl)nn34)nnc2s1`, the TGI in the assay with T-47D breast, in the assay with MCF7 breast, with RPMI-8226 leukemia, in the assay on BT-549 breast, with M14 melanoma and in the assay with UACC-257 melanoma was above 100 µM throughout. In addition, the TGI in the assay on MALME-3M melanoma, in the assay with LOX IMVI melanoma, with SF-539 CNS, with A498 renal, in the assay with OVCAR-8 ovarian and in the assay with NCI/ADR-RES ovarian was above 100 µM each time. Moreover, the TGI with EKVX NSCLC and with ACHN renal was above 100 µM in each case.

As for `Cc1cccc(/C=N/NC(=S)NC2CCCCC2)n1`, the TGI is above 86.3 µM in the assay on T-47D breast; above 100 µM with MCF7 breast; 45.4 µM in the assay on RPMI-8226 leukemia; above 100 µM with BT-549 breast; 61.6 µM in the assay with M14 melanoma; above 84.5 µM with UACC-257 melanoma. The TGI with MALME-3M melanoma is above 86.4 µM; in the assay on LOX IMVI melanoma, 99 µM; with SF-539 CNS it was 88.6 µM; with A498 renal it was above 71.4 µM; in the assay with OVCAR-8 ovarian, above 69 µM; with NCI/ADR-RES ovarian, above 67.1 µM. Also, the results for the TGI in the assay on EKVX NSCLC and in the assay with ACHN renal were above 100 µM and above 85.2 µM, respectively.

Consider `CC(C)(C)c1cc(C(C)(C)C)c(P=C(Cl)Cl)c(C(C)(C)C)c1` (stereo unspecified), for which the TGI in the assay on T-47D breast, in the assay on MCF7 breast, with RPMI-8226 leukemia, in the assay on BT-549 breast, in the assay with M14 melanoma and with UACC-257 melanoma was above 100 µM in each case. Besides, the TGI with MALME-3M melanoma, in the assay with LOX IMVI melanoma, in the assay on SF-539 CNS, in the assay with A498 renal, in the assay on OVCAR-8 ovarian and in the assay with NCI/ADR-RES ovarian was above 100 µM throughout. Besides, the TGI in the assay with EKVX NSCLC and in the assay with ACHN renal was above 100 µM each time.

In the case of `CC(=O)O[C@H]1CC[C@@]2(C)C(=CC[C@H]3[C@@H]4C[C@H](N5CCN(C)CC5)[C@H](OC(C)=O)[C@@]4(C)CC[C@@H]32)C1`, the TGI was 41.2 µM with T-47D breast; 15.3 µM in the assay with MCF7 breast; 14.7 µM with RPMI-8226 leukemia; 32.8 µM in the assay on BT-549 breast; 8.2 µM in the assay on M14 melanoma; 17.3 µM in the assay with UACC-257 melanoma. Further, the TGI turned out to be 24.8 µM in the assay with MALME-3M melanoma; 7.83 µM in the assay on LOX IMVI melanoma; 13.7 µM with SF-539 CNS; 48.3 µM in the assay on A498 renal; 30.5 µM with OVCAR-8 ovarian; 44.6 µM with NCI/ADR-RES ovarian. Besides, the TGI is 59.9 µM with EKVX NSCLC and above 100 µM in the assay with ACHN renal.
